For assay [1], the target named is Dual specificity tyrosine-phosphorylation-regulated kinase 1A (Rattus norvegicus, UniProt Q63470). The assay is classed as biochemical, Homo sapiens.
The test system of assay [2] is HEK293. In words: EBV LMP1 TES2 canonical NF-kB signalling blockers – cell-based, HEK293, luciferase, cherry-pick, dose response (AID 588343). The assay is classed as functional. The following applies: Homo sapiens.
Assay [3] deals with HEK293. The assay can be described thus: cells. The class given is functional, cell-based. The following applies: Homo sapiens.
The target in assay [4] is Nuclear receptor subfamily 0 group B member 1 (Homo sapiens, UniProt P51843). The assay can be described thus: Luminescence-based cell-based high throughput dose response assay for inhibitors of the orphan nuclear receptor subfamily 0, group B, member 1 (DAX1; NR0B1). [Related pubchem assays (depositor defined):AID504766, AID504790]. The assay is classed as functional.
Nuclear receptor subfamily 0 group B member 1, sequence (P51843 whole entry): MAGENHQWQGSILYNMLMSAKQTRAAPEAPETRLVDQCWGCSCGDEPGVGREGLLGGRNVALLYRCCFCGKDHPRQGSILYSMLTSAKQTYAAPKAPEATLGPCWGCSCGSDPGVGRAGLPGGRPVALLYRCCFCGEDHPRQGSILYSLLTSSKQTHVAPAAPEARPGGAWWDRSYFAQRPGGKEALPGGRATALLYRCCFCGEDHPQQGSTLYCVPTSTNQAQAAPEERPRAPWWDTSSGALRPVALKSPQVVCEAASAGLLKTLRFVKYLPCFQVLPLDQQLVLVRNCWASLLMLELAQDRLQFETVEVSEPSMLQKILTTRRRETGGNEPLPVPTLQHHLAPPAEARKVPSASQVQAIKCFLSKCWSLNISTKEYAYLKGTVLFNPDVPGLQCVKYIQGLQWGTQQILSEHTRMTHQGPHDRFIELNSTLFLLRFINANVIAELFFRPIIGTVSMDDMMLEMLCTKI

The target of assay [5] is T1, Sentrin-specific protease 6 (Homo sapiens, UniProt Q9GZR1).
T1 sequence (Q9GZR1 whole entry): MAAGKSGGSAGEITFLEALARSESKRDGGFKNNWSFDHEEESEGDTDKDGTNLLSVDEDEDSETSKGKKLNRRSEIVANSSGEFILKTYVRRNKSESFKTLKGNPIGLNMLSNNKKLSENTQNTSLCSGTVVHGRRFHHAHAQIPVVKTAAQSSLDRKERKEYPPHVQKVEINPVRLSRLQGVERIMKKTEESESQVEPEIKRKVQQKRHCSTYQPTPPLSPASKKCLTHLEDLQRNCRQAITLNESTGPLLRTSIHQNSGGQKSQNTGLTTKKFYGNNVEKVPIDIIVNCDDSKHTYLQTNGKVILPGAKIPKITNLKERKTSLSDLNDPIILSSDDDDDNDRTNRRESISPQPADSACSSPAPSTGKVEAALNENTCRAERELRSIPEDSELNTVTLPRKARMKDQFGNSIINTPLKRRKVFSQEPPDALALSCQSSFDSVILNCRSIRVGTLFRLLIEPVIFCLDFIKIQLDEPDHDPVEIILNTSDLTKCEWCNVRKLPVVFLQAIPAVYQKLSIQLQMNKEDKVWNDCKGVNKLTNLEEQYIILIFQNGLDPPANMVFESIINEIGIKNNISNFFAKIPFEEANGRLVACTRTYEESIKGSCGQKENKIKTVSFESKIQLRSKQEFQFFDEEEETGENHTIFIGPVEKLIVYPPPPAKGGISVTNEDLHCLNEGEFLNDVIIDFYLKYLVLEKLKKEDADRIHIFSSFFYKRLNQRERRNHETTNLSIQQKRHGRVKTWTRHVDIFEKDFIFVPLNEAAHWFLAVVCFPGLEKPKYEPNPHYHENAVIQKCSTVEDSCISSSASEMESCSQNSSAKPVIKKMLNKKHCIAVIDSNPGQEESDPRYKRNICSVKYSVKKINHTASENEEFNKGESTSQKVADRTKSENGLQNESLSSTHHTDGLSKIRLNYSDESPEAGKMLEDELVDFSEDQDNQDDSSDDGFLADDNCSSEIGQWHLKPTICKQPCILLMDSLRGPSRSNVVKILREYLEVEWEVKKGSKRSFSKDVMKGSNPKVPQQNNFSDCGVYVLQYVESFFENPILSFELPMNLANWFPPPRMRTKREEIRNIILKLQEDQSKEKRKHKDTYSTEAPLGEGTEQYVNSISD
The assay can be described thus: SAR Analysis of small molecule inhibitors of Sentrin-specific protease 6 (SENP6) using a Luminescent assay. [Related pubchem assays (depositor defined):AID2582, AID2599]. The assay is classed as functional.

For assay [6], the target named is T2, Caspase-3 (Homo sapiens, UniProt P42574).
T2 sequence (P42574 whole entry): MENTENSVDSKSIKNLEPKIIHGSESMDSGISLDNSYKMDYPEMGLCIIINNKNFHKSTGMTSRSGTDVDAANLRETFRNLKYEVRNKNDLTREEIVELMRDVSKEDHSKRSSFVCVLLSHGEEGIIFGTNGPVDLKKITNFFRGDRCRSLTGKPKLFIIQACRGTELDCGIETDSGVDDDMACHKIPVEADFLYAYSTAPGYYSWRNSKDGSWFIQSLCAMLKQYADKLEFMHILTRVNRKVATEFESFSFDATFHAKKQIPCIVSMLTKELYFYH
In words: SAR Analysis of small molecule inhibitors of Sentrin-specific proteases (SENPs) using a Caspase-3 Selectivity assay. [Related pubchem assays (depositor defined):AID2540, AID2599, AID434973, AID489001]. The class given is functional.

The target in assay [7] is T3, Sentrin-specific protease 7 (Homo sapiens, UniProt Q9BQF6).
T3 sequence (Q9BQF6 whole entry): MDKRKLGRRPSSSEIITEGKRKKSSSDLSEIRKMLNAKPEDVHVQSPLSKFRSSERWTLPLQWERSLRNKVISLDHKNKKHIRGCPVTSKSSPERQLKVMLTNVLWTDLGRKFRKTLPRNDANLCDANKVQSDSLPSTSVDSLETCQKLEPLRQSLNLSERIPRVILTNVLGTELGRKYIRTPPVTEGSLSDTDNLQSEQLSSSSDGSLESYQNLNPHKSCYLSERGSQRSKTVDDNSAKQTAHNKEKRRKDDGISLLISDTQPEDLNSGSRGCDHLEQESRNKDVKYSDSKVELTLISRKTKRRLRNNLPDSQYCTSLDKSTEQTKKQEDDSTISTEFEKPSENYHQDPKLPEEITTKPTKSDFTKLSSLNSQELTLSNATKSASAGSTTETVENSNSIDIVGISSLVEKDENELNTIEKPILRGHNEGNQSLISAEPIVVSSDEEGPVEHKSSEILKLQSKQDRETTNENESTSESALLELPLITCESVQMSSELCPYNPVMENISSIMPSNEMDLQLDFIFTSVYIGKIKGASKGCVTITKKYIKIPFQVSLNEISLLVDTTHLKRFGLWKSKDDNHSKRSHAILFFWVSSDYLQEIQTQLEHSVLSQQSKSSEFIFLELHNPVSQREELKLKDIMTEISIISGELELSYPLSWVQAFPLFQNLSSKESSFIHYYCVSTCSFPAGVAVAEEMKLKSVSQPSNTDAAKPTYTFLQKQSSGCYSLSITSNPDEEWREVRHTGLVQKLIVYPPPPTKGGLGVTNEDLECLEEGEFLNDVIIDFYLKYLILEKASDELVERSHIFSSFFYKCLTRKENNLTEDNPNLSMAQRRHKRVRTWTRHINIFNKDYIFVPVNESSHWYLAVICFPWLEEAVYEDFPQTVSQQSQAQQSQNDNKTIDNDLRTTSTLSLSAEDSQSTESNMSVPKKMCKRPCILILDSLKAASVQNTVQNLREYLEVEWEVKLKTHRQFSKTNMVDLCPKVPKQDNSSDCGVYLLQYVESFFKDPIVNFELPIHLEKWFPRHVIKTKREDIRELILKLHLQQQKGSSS
The assay can be described thus: inhibition of human SENP7 cleavage activity – biochemical, luminescence, SAR follow-up (AID 504497). The assay is classed as functional.

Assay [8] has as its target T4, Sentrin-specific protease 8 (Homo sapiens, UniProt Q96LD8).
T4 sequence (Q96LD8 whole entry): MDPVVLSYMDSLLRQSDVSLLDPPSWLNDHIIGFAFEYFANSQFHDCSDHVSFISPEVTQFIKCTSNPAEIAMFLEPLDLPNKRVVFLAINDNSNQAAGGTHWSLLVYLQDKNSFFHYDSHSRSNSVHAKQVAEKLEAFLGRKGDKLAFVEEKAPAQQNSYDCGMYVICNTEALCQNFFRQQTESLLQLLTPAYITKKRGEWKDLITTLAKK
In words: inhibition of human SENP8 cleavage activity – biochemical, luminescence, SAR follow-up (AID 504501). The class given is functional.

Assay [9] has as its target T5, Phospholipase D1 (Homo sapiens, UniProt Q13393).
T5 sequence (Q13393 whole entry): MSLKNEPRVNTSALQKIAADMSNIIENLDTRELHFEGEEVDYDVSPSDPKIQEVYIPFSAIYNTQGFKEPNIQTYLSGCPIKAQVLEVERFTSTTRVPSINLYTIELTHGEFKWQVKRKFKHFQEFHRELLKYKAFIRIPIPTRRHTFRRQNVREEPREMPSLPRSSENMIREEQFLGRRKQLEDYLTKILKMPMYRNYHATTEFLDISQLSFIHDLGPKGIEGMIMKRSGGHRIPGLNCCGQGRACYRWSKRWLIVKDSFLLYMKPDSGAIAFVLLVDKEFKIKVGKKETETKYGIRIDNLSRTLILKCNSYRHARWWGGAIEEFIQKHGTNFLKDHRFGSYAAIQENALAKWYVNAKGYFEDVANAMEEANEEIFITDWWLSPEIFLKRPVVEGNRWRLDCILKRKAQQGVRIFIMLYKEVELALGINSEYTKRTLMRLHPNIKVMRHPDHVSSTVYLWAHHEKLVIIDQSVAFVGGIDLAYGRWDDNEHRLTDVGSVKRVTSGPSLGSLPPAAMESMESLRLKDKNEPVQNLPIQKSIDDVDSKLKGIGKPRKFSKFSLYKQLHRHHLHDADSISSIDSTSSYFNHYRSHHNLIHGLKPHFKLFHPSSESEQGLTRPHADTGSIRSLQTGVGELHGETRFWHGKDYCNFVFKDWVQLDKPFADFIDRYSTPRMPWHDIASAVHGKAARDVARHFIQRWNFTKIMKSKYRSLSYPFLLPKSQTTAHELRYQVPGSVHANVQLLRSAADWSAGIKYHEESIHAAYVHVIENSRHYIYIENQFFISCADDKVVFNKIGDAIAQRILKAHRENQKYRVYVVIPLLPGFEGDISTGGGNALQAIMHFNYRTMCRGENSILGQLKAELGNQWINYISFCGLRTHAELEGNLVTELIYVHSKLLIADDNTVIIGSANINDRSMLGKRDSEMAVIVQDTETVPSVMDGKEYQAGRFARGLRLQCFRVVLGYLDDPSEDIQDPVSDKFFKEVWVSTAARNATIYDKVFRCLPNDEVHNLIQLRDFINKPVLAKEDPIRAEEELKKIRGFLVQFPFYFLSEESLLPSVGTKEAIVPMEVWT
In words: PLD1 purified enzyme concentration response. [Related pubchem assays (depositor defined):AID588854]. The assay is classed as functional.

In assay [10] the target is T6, Phospholipase D2 (Homo sapiens, UniProt O14939). The assay can be described thus: PLD2 purified enzyme concentration response. [Related pubchem assays (depositor defined):AID588854]. The assay is classed as functional.
T6 sequence (O14939 whole entry): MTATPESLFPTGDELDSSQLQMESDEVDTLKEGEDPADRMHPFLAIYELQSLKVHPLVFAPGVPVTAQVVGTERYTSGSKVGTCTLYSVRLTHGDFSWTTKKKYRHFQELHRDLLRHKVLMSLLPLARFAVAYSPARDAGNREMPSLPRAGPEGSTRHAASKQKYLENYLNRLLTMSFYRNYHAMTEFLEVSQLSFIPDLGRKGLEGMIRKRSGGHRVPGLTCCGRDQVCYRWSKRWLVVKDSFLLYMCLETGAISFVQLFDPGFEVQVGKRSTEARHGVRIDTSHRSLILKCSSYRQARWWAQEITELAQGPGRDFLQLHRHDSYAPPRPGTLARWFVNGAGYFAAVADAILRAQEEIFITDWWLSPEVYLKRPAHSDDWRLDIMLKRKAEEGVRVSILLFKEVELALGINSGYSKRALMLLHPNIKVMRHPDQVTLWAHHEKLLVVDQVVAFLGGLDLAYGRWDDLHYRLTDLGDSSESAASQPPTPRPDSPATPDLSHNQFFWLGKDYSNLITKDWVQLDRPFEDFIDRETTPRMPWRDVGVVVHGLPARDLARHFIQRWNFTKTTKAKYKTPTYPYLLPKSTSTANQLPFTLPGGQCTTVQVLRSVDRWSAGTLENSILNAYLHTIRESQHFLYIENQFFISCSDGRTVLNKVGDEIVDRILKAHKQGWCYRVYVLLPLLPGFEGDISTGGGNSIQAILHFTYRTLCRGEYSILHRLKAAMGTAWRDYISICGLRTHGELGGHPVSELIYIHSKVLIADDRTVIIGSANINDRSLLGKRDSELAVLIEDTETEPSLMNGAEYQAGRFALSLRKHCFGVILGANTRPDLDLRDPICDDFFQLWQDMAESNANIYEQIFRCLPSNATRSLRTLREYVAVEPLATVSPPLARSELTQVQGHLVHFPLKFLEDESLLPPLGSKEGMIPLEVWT
In assay [11] the target is T5, Phospholipase D1. In words: cellular phospholipase D1 inhibition IC50 – cell-based, dose response (AID 602151).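 Note: cellular PLD1 assay in Calu-1 cells stimulated with PMA.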 The class given is functional.
Assay [12] concerns the target T6, Phospholipase D2. The assay can be described thus: cellular phospholipase D2 inhibition IC50 – cell-based, dose response (AID 602147).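 Note: cellular assay in HEK293 cells overexpressing GFP-tagged PLD2.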 The class given is functional.
Assay [13] addresses T2, Caspase-3. In words: inhibition of recombinant caspase-3 activity – biochemical, luminescence, set 2, selectivity assay for SENP protease inhibitor project, SAR follow-up (AID 588599). The assay is classed as functional.
The target of assay [14] is T4, Sentrin-specific protease 8. The assay can be described thus: inhibition of sentrin protease 8 – biochemical, luminescence, set 2, SAR follow-up (AID 588601). The class given is functional.
Assay [15] concerns the target T1, Sentrin-specific protease 6. In words: inhibition of human SENP6 catalytic domain – biochemical, luminescence, set 2, SAR follow-up (AID 588598). The assay is classed as functional.
Assay [16] addresses T3, Sentrin-specific protease 7. The assay can be described thus: inhibition of human SENP7 cleavage activity – biochemical, luminescence, set 2, SAR follow-up (AID 588600). The assay is classed as functional.
The target of assay [17] is FAD-linked sulfhydryl oxidase ALR (Homo sapiens, UniProt P55789). The assay can be described thus: ALR-catalysed DTT oxidation blockers – biochemical, H2O2 detection, luminescence, cherry-pick, dose response (AID 493248).
FAD-linked sulfhydryl oxidase ALR, sequence (P55789 whole entry): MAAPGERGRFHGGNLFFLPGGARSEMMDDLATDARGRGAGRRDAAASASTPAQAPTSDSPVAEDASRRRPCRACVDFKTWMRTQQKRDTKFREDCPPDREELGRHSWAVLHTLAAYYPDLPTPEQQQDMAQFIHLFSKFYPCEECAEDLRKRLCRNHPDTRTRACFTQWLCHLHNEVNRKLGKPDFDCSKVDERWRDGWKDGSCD

SMILES strings stand for the structures. Calls of active or inactive are those of the source.

For `CC1=C(C(=O)OCc2ccc3c(c2)OCO3)C(c2ccccc2)NC(=O)N1` (stereo unspecified), the AC50 in assay [1] was 0.695 µM (active); in the assay with HEK293 [2], 6.3 µM (active).

With `Cc1ccc2nc(NC(=O)c3ccc(Cl)s3)sc2c1`, the IC50 (in the assay on HEK293 [3]; in assay [4]) was > 67.5 µM (inactive) throughout.

As for `CCOc1ccc2nc(N(Cc3cccnc3)C(=O)c3ccc(Cl)s3)sc2c1`, the IC50 (in assay [5]; at Caspase-3 [6]; in assay [7]; in assay [8]) was > 99 µM (inactive) throughout.

In the case of `O=C(NCCN1CCC2(CC1)C(=O)NCN2c1ccccc1)c1cc2ccccc2s1`, the IC50 was 4 µM (active) at Phospholipase D1 [9] and 0.092 µM (active) on Phospholipase D2 [10].

For `C[C@@H](CN1CCC(n2c(=O)[nH]c3ccccc32)CC1)NC(=O)C1C[C@H]1c1ccccc1` (stereo partly specified), the values for the IC50 at Phospholipase D1 [11] and on Phospholipase D2 [12] were 0.088 µM (active) and 14.5 µM (active), respectively.

On to `O=C(NCCN1CCC2(CC1)C(=O)NCN2c1ccc(F)cc1)c1cnc2ccccc2c1`, for which the IC50 is 20 µM (active) at Phospholipase D1 [9] and 0.14 µM (active) at Phospholipase D2 [10].

On to `Fc1ccc(-c2nc(/C=C/c3ccccc3)no2)cc1`, for which the IC50 in assay [5] was 32 µM (active); at Caspase-3 [6], 37 µM (active); on Caspase-3 [13], 33.8 µM (active); in [14], 11.7 µM (active); in assay [15], 11.7 µM (active); in assay [7], 14 µM (active). For the same molecule, the values for the IC50 in [8] and in [16] were 33 µM (active) and 11.1 µM (active), respectively.

Take `COc1cc(/C=C(/C#N)c2nc(-c3ccc(C)cc3)no2)ccc1OCc1cccc(C(F)(F)F)c1`: the IC50 (at Caspase-3 [13]; in assay [14]; in assay [15]; in assay [16]) was > 99 µM (inactive) each time.

On to `C[C@@H](CN1CCC(n2c(=O)[nH]c3ccccc32)CC1)NC(=O)c1cc2ccccc2[nH]1`, for which the IC50 on Phospholipase D1 [11] is 0.001 µM (active); at Phospholipase D2 [12], 0.066 µM (active).

Turning to `COc1ccc(/C=N/Nc2nc3ccccc3[nH]2)c(OC)c1OC`, in assay [17], the half-maximal activity concentration (AC50) was 0.278 µM (active). The IC50 (in the assay on HEK293 [3]; in [4]) was > 67.5 µM (inactive) in each case.
